Assay results published in patent US5514704A, “Benzothiophenes to inhibit leukotrienes” (Eli Lilly and Company, priority 1995, dated 1996).

How the values were obtained:
[1] = MCII mast cell toxicity assay (XTT); format: cell-based; settings: mouse, mcii mast cells, 4-12 hours, 37° C., read-out: MCII Mast Cell Toxicity (IC50)
Excerpt: This toxicity assay is run in parallel with the MCII mast cell LTC4 assay and serves as an indicator of compound effects on the viability and metabolic activity of the MCII cells. This "toxicity" assay is based on the ability of dehydrogenase enzymes present in viable metabolically active cells to bioreduce the tetrazolium salt XTT yielding a colored, water soluble formazan product. (see, Roehm et al.) "An improved colorimetric assay for cell proliferation and viability utilzing the tetrazolium salt XTT. J. Immunol. Methods […] (1991).
A duplicate polystyrene 96-well tissue culture plate (Costar) is set up with sensitized MCII cells, EM95 ascites, media and dilutions of the test compound as described above. The complete media is supplemented with concanavalin A induced culture supernatants from the mouse helper T cell clone D10.G4, as a source of mast cell growth factors.
Wells of the toxicity assay plate are pulsed with 25 μl XTT (Sigma) plus phenazine methosulfate (Aldrich) giving a final concentration of 0.2 mg/ml XTT and 25 μM phenazine methosulfate. The plates are incubated at 37° C. in 10% CO2 for 4-12 hours and then production of the XTT formazan product determined by measuring the optical density of the wells at a wavelength of 450 nm. The positive control on each plate is stimulated MCII cells with dimethyl sulfoxide vehicle alone and the negative control is the same reaction mixture without cells. The background negative control value is subtracted from experimental and positive control values and the data are reported as percent of positive control.
(§1) (The results are in IC50 μM). (Compound A is a compound of formula II where R6 and R7 are hydrogen, and R5 is phenyl. Compound B is a compound of formula I where R1, R2 and R3 are hydrogen. Compound C is a compound of formula II wherein R6 and R7 are methyl, and R5 is p-methoxyphenyl. Compound D is a compound of formula II wherein R1 and R2 are hydrogen, and R5 is p-hydroxyphenyl.)

[2] = target: T1, cPLA2 (Homo sapiens, UniProt P47712); assay: cPLA2 Enzymatic Activity Assay, 14C-PC/DG liposome substrate; format: biochemical
T1 sequence (P47712 1-749): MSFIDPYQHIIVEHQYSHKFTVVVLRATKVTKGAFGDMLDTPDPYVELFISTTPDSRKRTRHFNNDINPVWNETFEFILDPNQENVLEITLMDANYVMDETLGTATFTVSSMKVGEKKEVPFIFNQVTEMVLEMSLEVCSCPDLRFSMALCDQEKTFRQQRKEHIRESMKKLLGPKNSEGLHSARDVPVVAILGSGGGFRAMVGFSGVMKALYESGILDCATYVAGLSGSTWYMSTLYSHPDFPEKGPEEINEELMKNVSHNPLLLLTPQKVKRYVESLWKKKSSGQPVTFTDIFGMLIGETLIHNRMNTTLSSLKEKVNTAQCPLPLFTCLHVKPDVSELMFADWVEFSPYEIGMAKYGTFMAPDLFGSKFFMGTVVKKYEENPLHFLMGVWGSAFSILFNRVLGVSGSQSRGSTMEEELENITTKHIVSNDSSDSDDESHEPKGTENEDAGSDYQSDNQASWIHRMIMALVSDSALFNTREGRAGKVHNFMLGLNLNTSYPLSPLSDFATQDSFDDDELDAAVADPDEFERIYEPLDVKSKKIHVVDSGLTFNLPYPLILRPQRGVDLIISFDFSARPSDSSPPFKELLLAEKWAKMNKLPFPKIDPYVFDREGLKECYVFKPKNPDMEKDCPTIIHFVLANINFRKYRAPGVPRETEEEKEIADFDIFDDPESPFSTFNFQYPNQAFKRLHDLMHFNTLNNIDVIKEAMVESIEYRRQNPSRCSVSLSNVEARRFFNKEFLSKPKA
Procedure: (§2) The substrate, sonicated liposomes containing 1-palmitoyl-2 ^14 C!arachidonoyl-sn-glycerol-3-phosphocholine ( ^14 C!PC, 55 mCi/mmol from NEN Research Products) and sn-1,2-dioleoylglycerol (DG, Avanti Polar Lipids, Birmingham, Ala.) at a molar ratio of 2:1, are prepared as follows. ^14 C!PC (20 nmol, 1×10^6 dpm, 50 uCi/ml in toluene/ethanol) and DG (10 nmol, 100 ug/ml in chloroform) are dried under nitrogen. The lipids are dispersed in 1 ml of 150 mM NaC1, 50 mM Hepes, pH 7.5 (assay buffer) by sonication at 4° C., with Microson probe-sonicator (Heat Systems Ultrasonics) for 4×15 seconds, with 45 second intervals. Bovine serum albumin (essentially fatty acid free, from a 100 mg/ml stock in water, Sigma) is added to a final concentration of 4 mg/ml. Samples to be assayed for cPLA2 activity are incubated with 50 ul liposomes (0.5 nmol ^14 C!PC, 50,000 dpm containing 0.25 nmol of DG) in a total volume of 0.2 ml of assay buffer containing 1 mM CaCl2 and 1 mM 2-ME. Incubations are carried out at 37° C. for 15 minutes and terminated by adding 2 ml of Dole's reagent (2-propanol/heptane/0.5M sulfuric acid, 40:10:1 containing 10 ug/ml of stearic acid). After mixing, 1.2 ml of heptane and 1 ml of water are added. The mixtures are briefly vortexed and the upper phase transferred to tubes containing 2 ml of heptane and 150 mg of Bio-Sil (Bio-Rad Laboratories) activated at 130° C. before use. The tubes are thoroughly vortexed and centrifuged (1000×g for 5 minutes). The supernatants are decanted into scintillation vials. After addition of 10 ml of a liquid scintillation cocktail (Ready Protein+, Beckman) radioactivity is counted using a Beckman liquid scintillation counter Model LS 7000. High radioactive counts correlate with enzymatic activity. The chromogenic cPLA2 enzyme assay used is analogous to Reynolds et al., Analytical Biochemistry, 217, 25-32 (1194).
as §1

[3] = target: T2, 5-lipoxygenase (Homo sapiens, UniProt P09917); assay: 5-Lipoxygenase (5-LPO) Assay: inhibition of leukotriene B4 formation by human neutrophil 20,000×g supernatant; format: biochemical
T2 construct: The resultant supernatant containing the cytosolic 5-lipoxygenase activity is stored frozen; from tissue; host or cells: peripheral blood neutrophils, 20,000×g supernatant of sonicate
T2 sequence (P09917 1-674): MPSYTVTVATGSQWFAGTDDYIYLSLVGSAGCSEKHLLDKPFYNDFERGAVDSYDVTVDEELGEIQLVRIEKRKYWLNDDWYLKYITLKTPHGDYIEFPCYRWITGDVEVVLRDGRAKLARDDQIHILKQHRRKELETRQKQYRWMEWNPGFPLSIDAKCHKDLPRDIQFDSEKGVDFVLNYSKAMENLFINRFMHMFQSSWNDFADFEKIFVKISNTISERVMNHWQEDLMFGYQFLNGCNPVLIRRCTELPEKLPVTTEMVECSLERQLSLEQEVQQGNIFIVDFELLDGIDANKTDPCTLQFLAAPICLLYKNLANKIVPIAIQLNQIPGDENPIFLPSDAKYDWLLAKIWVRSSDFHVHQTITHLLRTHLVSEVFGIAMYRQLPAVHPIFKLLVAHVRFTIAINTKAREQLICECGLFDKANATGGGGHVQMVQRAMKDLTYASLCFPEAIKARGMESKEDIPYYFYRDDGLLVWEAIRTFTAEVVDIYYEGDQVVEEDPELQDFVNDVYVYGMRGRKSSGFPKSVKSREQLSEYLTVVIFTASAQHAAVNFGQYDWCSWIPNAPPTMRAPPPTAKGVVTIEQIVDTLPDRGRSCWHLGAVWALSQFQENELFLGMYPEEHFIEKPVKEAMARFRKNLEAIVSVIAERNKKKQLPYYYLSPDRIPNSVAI
Procedure: To determine the effect of compounds on 5-lipoxygenase activity, peripheral blood neutrophils are separated by density centrifugation as described (Marder et al., Prostaglandins Leukot. and Essent. Fatty Acids 46, 265-270, 1992) and the cytosolic 5-lipoxygenase is prepared from isolated neutrophils according to a modification of Carter et al., (J. Pharmacolo Exp. Thero 256, 929-937 (1991)). Briefly, neutrophils are washed twice in buffer (in millimolar: PIPES, 10; BES, 10; and EDTA, 1; pH 6.8) and diluted to 2.5×10^7 cells/ml. Cells are disrupted with sonication and the cytosolic fraction obtained by centrifugation at 20,000×g for 20 min. at 4° C. The resultant supernatant containing the cytosolic 5-lipoxygenase activity is stored frozen at -70° C. prior to use. Compounds are evaluated for 5-lipoxygenase inhibitory activity. Varying concentration of compounds in 200 ml aliquots containing 50 ml of human 20,000×g supernatant in assay buffer (in millimolar: PIPES, 10; BES, 10; EDTA, 1; NaCl, 100; ATP, 1.56; and CaCl2, 2.5; pH 6.8) containing 3.0 mM AA are used. The reaction proceeds for 5 minutes at 37° C. and is terminated upon the addition of 50 ml EDTA (250 mM). The percent inhibition of leukotriene B4 is determined for each concentration of test compound as compared to vehicle (containing no compound) control. The concentration representing 50% inhibition (IC50) is determined by standard mathematical techniques. Leukotriene B4 is determined by EIA. EIA reagents were purchased from Caymen Chemical Co. (Ann Arbor, Mich.) and used according to the assay procedures as outlined therein.

[4] = test system: thromboxane B2 (TxB2) production, human plasma-depleted blood; assay: Inhibition of TxB2 production by plasma-depleted blood; format: cell-based; settings: read-out: Plasma DPLTD Blood TxB2 (IC50)
Procedure: Compounds are evaluated for their ability to inhibit production of leukotriene B4 (LTB4) and thromboxane B2 (TxB2) upon stimulation of human plasma-depleted blood with formyl-methionyl-leucyl-phenylalanine (FMLP) and thrombin. LTB4 is produced by neutrophils and TxB2 by platelets stimulated at their respective receptors with FMLP and thrombin. The assay is carried out in 1 ml deep well polypropylene 96-well plates (Beckman). For the tests ten ml of blood is collected in EDTA at a final concentration of 1.5 mg/ml. Then, 40 ml glucose phosphate buffer containing 0.1% gelatin is added and the suspension centrifuged at 900 g for 10 minutes at room temperature. The supernatant is discarded and the cells washed once with 50 ml buffer before resuspending them in 50 ml Krebs-Ringers-Henseleit Buffer containing 0.1% gelatin, 1 mM CaCl2, 1.1 mM MgCl2 (KRH buffer). Working solutions of test compounds are made by dissolving the material in DMSO at 10 mM and diluting with appropriate amounts of KRH buffer. An agonist solution is made containing 1 μM FMLP (sigma) and 10 units/ml of thrombin in KRH buffer (Enzyme Research Labs). […] The amount of LTB4 and TxB2 produced is determined by the use of a competitive enzyme immunoassay using commercial reagents from Cayman Chemical. […]

[5] = target: T1, cPLA2; assay: cPLA2 enzyme assay, chromogenic; format: biochemical
Procedure: as §2, with “The mixtures are briefly vortexed and the upper phase transferred to tubes containing 2 ml of heptane and 150 mg of Bio-Sil (Bio-Rad Laboratories) activated at 130° C. before use. The tubes are thoroughly vortexed and centrifuged (1000×g for 5 minutes). The supernatants are decanted into scintillation vials.” left out, “High radioactive counts correlate with enzymatic activity. The chromogenic cPLA2 enzyme assay used is analogous to Reynolds et al., Analytical Biochemistry, 217, 25-32 (1194).” left out

SMILES	CC50 [1]	IC50 ([2]; 14C-PC/DG liposomes, 37° C., 15 min, pH 7.5, read-out: C-PLA2 Enzyme, C14PC/DA6 (IC50))	IC50 [3]	IC50 [2]	IC50 [4]	IC50 [5]
O=C(c1ccccc1)c1c(-c2ccc(O)cc2)sc2cc(O)ccc12 [Compound A]	0.3 µM	7.3 ± 0.5 µM	–	–	–	–
Oc1ccc(-c2cc3ccc(O)cc3s2)cc1 [Compound B]	< 10 µM	–	0.2 ± 0.007 µM	7 ± 0.8 µM	–	–
O=C(c1ccc(O)cc1)c1c(-c2ccc(O)cc2)sc2cc(O)ccc12 [Compound D]	–	–	–	–	> 9.8 µM	–
O=C(c1ccc(-c2ccccc2)cc1)c1c(-c2ccc(O)cc2)sc2cc(O)ccc12 [Example 1, 6-hydroxyphenyl-2-(p-hydroxyphenyl)-(benzo(B)thien-3-yl)(p-phenyl)phenyl methanone]	> 10 µM	–	–	< 1.2 µM	–	146 µM
O=C(c1cccc2ccccc12)c1c(-c2ccc(O)cc2)sc2cc(O)ccc12 [Example 2, 6-hydroxyphenyl-2-(p-hydroxyphenyl)-(benzo(B)thien-3-yl)(α-napthyl)methanone]	> 10 µM	–	1.7 ± 0.9 µM	4.8 ± 1.6 µM	–	–
O=C(c1ccc2ccccc2c1)c1c(-c2ccc(O)cc2)sc2cc(O)ccc12 [Example 3, 6-hydroxyphenyl-2-(p-hydroxyphenyl)-(benzo(B)thien-3-yl)(β-napthyl)methanone]	> 10 µM	–	1 ± 0.5 µM	2.3 ± 0.6 µM	–	122 µM
